Earlier results on two molecules are cited in patent US20020137728A1, “Topical oral care compositions” (Oraceutical LLC, priority 2001, published 2002).

For data set [1] the following is noted: peroxide tooth whitening composition on tooth surface.
Data set [2] relates to serum alkaline phosphatase enzyme. To be noted: single dose intraperitoneally, Wistar rats with artificially induced periodontal lesions.

In the case of `OO` [hydrogen peroxide], the “time to reach vital pulp tissue from initial contact on the tooth surface” value in data set [1] was no more than 15 min.

For `O=C1O[C@H]([C@@H](O)CO)C(O)=C1O` [ascorbic acid], in data set [2], the “serum alkaline phosphatase enzyme” value is on record as “increase”.
